Measured values as given in BigSolDB 2.1.

COc1cc(CO)ccc1O
solubility (mole fraction)
Conditions	in acetonitrile	in ethanol	in ethyl acetate	in isopentanol	in isopropanol	in n-butanol	in n-butyl acetate	in n-pentanol
293.15 K	0.0172	0.0442	0.0176	0.0225	0.0284	0.0234	0.0098	0.0214
303.15 K	0.0262	0.0627	0.0296	0.0302	0.0418	0.0393	0.0177	0.0338
313.15 K	0.0415	0.0936	0.0393	0.0447	0.0578	0.0538	0.027	0.049
323.15 K	0.0713	0.142	0.0682	0.0652	0.0957	0.0902	0.0428	0.0728
333.15 K	0.127	0.205	0.1	0.0912	0.149	0.134	0.0653	0.102
343.15 K	0.22	0.317	0.163	0.14	0.237	0.182	0.107	0.155
